Assay results taken from US9944967B2, “Methods for the site-selective introduction of halogen into natural products” (THE REGENTS OF THE UNIVERSITY OF CALIFORNIA, priority 2013, dated 2018).

Columns and labels:
DEBSMod6+TE [1] = molecular target: T1, DEBSMod6+TE (Saccharopolyspora erythraea, UniProt Q03133); experiment: Acyl-CoA hydrolysis by DEBSMod6+TE (DTNB assay); assay type: biochemical
T1 construct: the sixth module of DEBS, including the terminal thioesterase (DEBSMod6+TE); His6 (C); made in house; host or cells: E. coli BAP1
T1 sequence (Q03133 1492-3172): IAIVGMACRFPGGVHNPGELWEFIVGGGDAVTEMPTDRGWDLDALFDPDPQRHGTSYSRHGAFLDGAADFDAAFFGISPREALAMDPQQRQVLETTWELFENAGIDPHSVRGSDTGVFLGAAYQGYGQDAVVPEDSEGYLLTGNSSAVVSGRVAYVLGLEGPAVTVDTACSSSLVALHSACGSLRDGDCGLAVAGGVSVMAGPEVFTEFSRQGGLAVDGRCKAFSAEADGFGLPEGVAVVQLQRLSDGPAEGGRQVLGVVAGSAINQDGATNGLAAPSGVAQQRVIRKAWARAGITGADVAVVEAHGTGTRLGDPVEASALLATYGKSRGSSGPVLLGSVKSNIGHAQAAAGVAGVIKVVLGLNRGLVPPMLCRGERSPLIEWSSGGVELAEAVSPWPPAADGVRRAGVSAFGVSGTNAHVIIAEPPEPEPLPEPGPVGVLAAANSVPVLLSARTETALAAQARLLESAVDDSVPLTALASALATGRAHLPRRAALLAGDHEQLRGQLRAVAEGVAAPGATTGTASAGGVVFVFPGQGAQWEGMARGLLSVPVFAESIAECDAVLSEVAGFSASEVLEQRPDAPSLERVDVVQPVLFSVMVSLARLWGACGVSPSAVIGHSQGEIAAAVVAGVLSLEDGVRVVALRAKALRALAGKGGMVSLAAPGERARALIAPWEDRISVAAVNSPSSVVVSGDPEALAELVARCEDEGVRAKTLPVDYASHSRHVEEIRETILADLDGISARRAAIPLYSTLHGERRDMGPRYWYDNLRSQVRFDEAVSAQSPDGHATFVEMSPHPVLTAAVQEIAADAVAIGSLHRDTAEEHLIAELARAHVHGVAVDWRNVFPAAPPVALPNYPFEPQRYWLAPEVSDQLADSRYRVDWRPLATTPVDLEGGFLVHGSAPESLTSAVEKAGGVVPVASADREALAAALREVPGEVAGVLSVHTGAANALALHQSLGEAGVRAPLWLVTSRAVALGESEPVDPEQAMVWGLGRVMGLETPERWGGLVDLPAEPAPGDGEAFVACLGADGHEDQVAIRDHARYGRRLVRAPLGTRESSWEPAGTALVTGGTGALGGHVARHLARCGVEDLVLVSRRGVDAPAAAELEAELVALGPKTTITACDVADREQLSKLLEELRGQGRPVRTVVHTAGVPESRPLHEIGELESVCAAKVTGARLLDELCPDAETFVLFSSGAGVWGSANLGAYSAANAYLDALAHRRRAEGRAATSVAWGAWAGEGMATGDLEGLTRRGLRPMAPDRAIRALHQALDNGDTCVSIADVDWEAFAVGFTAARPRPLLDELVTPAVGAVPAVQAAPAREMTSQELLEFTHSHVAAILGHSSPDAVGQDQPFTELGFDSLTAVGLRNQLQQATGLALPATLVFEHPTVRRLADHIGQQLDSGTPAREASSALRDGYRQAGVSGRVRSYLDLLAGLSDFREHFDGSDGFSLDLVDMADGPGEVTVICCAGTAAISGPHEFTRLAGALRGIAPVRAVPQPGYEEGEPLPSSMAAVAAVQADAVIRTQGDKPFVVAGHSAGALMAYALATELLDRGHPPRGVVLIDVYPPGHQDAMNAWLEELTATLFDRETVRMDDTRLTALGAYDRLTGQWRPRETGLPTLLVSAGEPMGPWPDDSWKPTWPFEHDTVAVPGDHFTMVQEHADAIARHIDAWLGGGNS
Protocol: Hydrolytic activity of DEBSMod6+TE was measured by monitoring the reaction of free CoA with DTNB as described previously (Huang, F., et al., Chem. Biol., 13:475-484 (2006)). Assays were performed at 37° C. in a total volume of 200 μL containing 400 mM sodium phosphate, pH 7.5, 500 μM DTNB, and DEBSMod6+TE (1 μM). Reactions were initiated by addition of acyl-CoA (0.5 mM) and monitored at 412 nm in a Beckman Coulter DU-800 spectrophotometer. Release of CoA was quantified by comparison to a standard curve (5-100 μM).

[2] = Stability of fluoromalonyl-CoA solutions; assay type: physicochemical; details: room temperature; in water or D2O
Protocol: Fluoromalonyl-CoA was prepared enzymatically from fluoromalonate and CoA using MatB and ATP. A myokinase/pyruvate kinase/PEP system was also used to regenerate ATP in order to avoid high concentrations of AMP that might inhibit MatB. The reaction mixture (10 mL) contained 100 mM sodium phosphate, pH 7.5, phosphoenolpyruvate (5 mM), TCEP (2.5 mM), magnesium chloride (5 mM), fluoromalonate (2.5 mM), ATP (2.5 mM), pyruvate kinase (36 U), myokinase (20 U), CoA (2 mM) and MatB (5 μM). The mixture was incubated at 37° C. for 6 h and then at room temperature for 16 h before lyophilizing overnight. The residue was dissolved in water (1.6 mL) and acidified to pH ˜2 by addition of 70% perchloric acid (160 μL). Insoluble material was removed by centrifugation at 18,000×g for 10 min. […] HR-ESI-MS [M−H]^−: calculated for C24H36FN2O19P3S, m/z, 870.0989. found m/z 870.0991.

DEBSMod6+TE [3] = experiment: Covalent inhibition assay for DEBSMod6+TE; assay type: biochemical; details: 18 h incubation in F-TKL reaction, then tested for TKL production; preliminary
Protocol: Two triketide reaction mixtures (200 μL) were prepared as described above, one containing fluoromalonate (10 mM) and the other methylmalonate (10 mM). DEBSMod6+TE (10 μM) and NDK-SNAC (2.5 mM) were added to each and the reactions were incubated at 37° C. for 18 h. The protein fraction was isolated from each mixture at room temperature by desalting on a Sephadex G-25 column (3 mL) using 400 mM sodium phosphate, pH 7.5. Fractions were pooled by Bradford assay and concentrated to 200 μL using Amicon Ultra spin concentrators (3 kDa MWCO). The isolated DEBSMod6+TE was assayed by adding TCEP (2.5 mM), methylmalonyl-CoA (1 mM) and NDK-SNAC (1 mM) to this mixture to give a final volume of 210 μL and incubating at 37° C. for 3 h, then analyzed by HPLC as described above.

[4] = tested on: malonyl-CoA synthetase (MatB); experiment: Malonyl-CoA synthetase (MatB) coupled assay; assay type: biochemical, S. coelicolor
Protocol: MatB activity was measured using a modified literature method (Williamson, J. R., et al., Method. Enzymol., 434-513 (1969)). The production of AMP was coupled to pyruvate formation by myokinase and pyruvate kinase, which in turn was coupled to NADH oxidation by lactate dehydrogenase. Assays were performed at 30° C. in a total volume of 200 μL containing 100 mM HEPES, pH 7.5, TCEP (1 mM), ATP (2.5 mM), magnesium chloride (5 mM), phosphoenolpyruvate (1 mM), NADH (0.3 mM), myokinase (0.5 U), pyruvate kinase (3.6 U), lactate dehydrogenase (2.6 U), dicarboxylic acid (25 μM-1 mM malonate, 50 μM-10 mM fluoromalonate or 25 μM-1.5 mM methylmalonate) and MatB (26 nM for malonate, 1 μM for fluoromalonate and 200 nM for methylmalonate). The reaction was initiated with addition of CoA (0.5 mM) and monitored at 340 nm in a Beckman Coulter DU-800 spectrophotometer.

Question: With CC(C)(COP(=O)(O)OP(=O)(O)OC[C@H]1O[C@@H](n2cnc3c(N)ncnc32)[C@H](O)[C@@H]1OP(=O)(O)O)[C@@H](O)C(=O)NCCC(=O)NCCSC(=O)C(F)C(=O)O (some centres unmarked) [Fluoromalonyl-CoA] as the compound, how does the “v0 (rate of acyl-CoA hydrolysis)” value (DEBSMod6+TE [1]; DEBSMod6 + TE (1 μM), acyl-CoA (500 μM), mean ± s.d. (n = 4)) read?
Answer: 3.5 ± 0.3 µM/min

Question: What about the “Relative rate of acyl-CoA hydrolysis” value (DEBSMod6+TE [1]; relative to methylmalonyl-CoA) of the same compound?
Answer: 2.6

Question: And the stability of solutions [2]?
Answer: at least 24 h

Question: What about the “covalent inactivation of DEBSMod6+TE” value (DEBSMod6+TE [3]) of the same compound?
Answer: not due to covalent inactivation of the enzyme

Question: With Fluoromalonate as the compound, how does the “selectivity of MatB for malonate over fluoromalonate” value [4] read?
Answer: 103 fold
